Key:
Test in all cases: relative viability (nuclei count vs DMSO), 5 days (fraction); higher = more cells survive
PAC-1 + Luminespib = compound: C=CCc1cccc(/C=N/NC(=O)CN2CCN(Cc3ccccc3)CC2)c1O [PAC-1] + CCNC(=O)c1noc(-c2cc(C(C)C)c(O)cc2O)c1-c1ccc(CN2CCOCC2)cc1 [Luminespib] (partner 0.01 µM)
In short: (§1)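 Relative viability equals treated-well nuclei counts divided by vehicle-well nuclei counts. Counts came from 4× images of lung cancer cell lines grown in 1536-well plates for 5 days after pin-tool dosing on the day after seeding. Dosing used one drug alone or a fixed anchor-drug dose plus five library-drug doses (not always all listed) in √10 steps, and values are medians of duplicate plates.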

PAC-1 + Decitabine = compound: C=CCc1cccc(/C=N/NC(=O)CN2CCN(Cc3ccccc3)CC2)c1O [PAC-1] + Nc1ncn([C@H]2C[C@H](O)[C@@H](CO)O2)c(=O)n1 [Decitabine] (partner 2 µM)
In short: as §1

PAC-1 + Pemetrexed = compound: C=CCc1cccc(/C=N/NC(=O)CN2CCN(Cc3ccccc3)CC2)c1O [PAC-1] + Nc1nc2[nH]cc(CCc3ccc(C(=O)N[C@@H](CCC(=O)O)C(=O)O)cc3)c2c(=O)[nH]1 [Pemetrexed] (partner 0.2 µM)
In short: as §1

PAC-1 + Crizotinib = compound: C=CCc1cccc(/C=N/NC(=O)CN2CCN(Cc3ccccc3)CC2)c1O [PAC-1] + C[C@@H](Oc1cc(-c2cnn(C3CCNCC3)c2)cnc1N)c1c(Cl)ccc(F)c1Cl [Crizotinib] (partner 1 µM)
In short: as §1

SK-MES-1
relative viability (PAC-1 + Luminespib; first compound 0.02 µM): 0.723 | relative viability (PAC-1 + Luminespib; first compound 0.06325 µM): 0.805 | relative viability (PAC-1 + Luminespib; first compound 0.2 µM): 0.726 | relative viability (PAC-1 + Luminespib; first compound 2 µM): 0.56 | relative viability (PAC-1 + Decitabine; first compound 0.02 µM): 0.432 | relative viability (PAC-1 + Decitabine; first compound 0.06325 µM): 0.389 | relative viability (PAC-1 + Decitabine; first compound 0.2 µM): 0.325 | relative viability (PAC-1 + Decitabine; first compound 2 µM): 0.322 | relative viability (PAC-1 + Pemetrexed; first compound 0.02 µM): 0.939 | relative viability (PAC-1 + Pemetrexed; first compound 0.06325 µM): 1.02 | relative viability (PAC-1 + Pemetrexed; first compound 0.2 µM): 0.889 | relative viability (PAC-1 + Pemetrexed; first compound 2 µM): 0.971 | relative viability (PAC-1 + Crizotinib; first compound 0.02 µM): 1.05 | relative viability (PAC-1 + Crizotinib; first compound 0.06325 µM): 1.01 | relative viability (PAC-1 + Crizotinib; first compound 0.2 µM): 1.01 | relative viability (PAC-1 + Crizotinib; first compound 2 µM): 1.01

From the supplement of paper PMC10307832
